This data set deals with miR-323a-5p. Description: miR-323a-5p expression levels by qPCR after transfection. Type of data set: cell-based. To be noted: SK-N-BE(2), miRNA 50 nM. As to the method: For in vitro experiments, SK-N-BE(2) neuroblastoma cells were reverse transfected with the addition of the QS-sRNA complexes to complete cell culture medium (IMDM, 10% heat-inactivated foetal bovine serum (FBS) South America Premium (Biowest, Nuaillé, France)) without antibiotics. After overnight (o/n) incubation media was changed for IMDM supplemented with 10% FBS and antibiotics.
Total RNA including small RNAs was extracted using the miRNeasy Mini Kit (Qiagen, Las Matas, Spain). mRNAs were reverse transcribed (0.5 μg total RNA) using Taqman RT kit (#4366596; Applied Biosystems, Thermo Fisher Scientific), and mature miRNA expression analysis was quantified using Taqman microRNA assays (#4440047; Applied Biosystems, Thermo Fisher Scientific) following manufacturer's recommendations. cDNA was quantified by standard RT-qPCR methodology using 2× Power SYBR Green Master Mix (Applied Biosystems, Thermo Fisher Scientific) using the ABI700SDS equipment. […] The relative fold-change Relative quantification of gene expression was performed with a comparative 2^(−ΔΔCT) method (Livak K J, Schmittgen T D. Analysis of relative gene expression data using real-time quantitative PCR and the 2(−Delta Delta C(T)) method. Methods 2001; 25: 402-408).
The RNU44 is as a housekeeping gene, commonly used to normalize the smallRNA content in the analyzed samples. […]
A general note: Real-time PCR tracks product formation cycle by cycle.

For one substance, miR-323a-5p expression levels results are on record in US20220249376A1, “NANOVESICLES AND ITS USE FOR NUCLEIC ACID DELIVERY” (FUNDACIÓ HOSPITAL UNIVERSITARI VALL D'HEBRON - INSTITUT DE …, priority 2019, published 2022).

Regarding “miRNA naked: miRIDIAN hsa-miR-323a-5p mimic AGGUGGUCCGUGGCGCGUUCGC (SEQ ID NO: 1), not complexed (listed as RNA, chemistry not given here)”, the miR-323a-5p expression levels result is “could not increase”.
